{"source": "paper PMC4594923", "about": "“Food Polyphenols Fail to Cause a Biologically Relevant Reduction of COX-2 Activity” (PLoS ONE, 2015)", "key": {"[1]": {"system": "arachidonic acid (AA) cascade", "test": "plasma oxylipin/PG levels in LPS induced sepsis in mice;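 also: male C57BL/6N mice given LPS, plasma oxylipins quantified by LC-MS after solid-phase extraction, pretreatment or vehicle given intraperitoneally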", "assay_type": "in vivo, C57BL/6N mice", "conditions": "mice, 24 h after LPS, vs. LPS group"}, "[2]": {"test": "clinical chemistry in plasma (urea, creatinine, AST, ALT, LDH) in LPS induced sepsis in mice", "assay_type": "in vivo, C57BL/6N mice", "conditions": "compound i. p. 100 mg/kg bw 2 h before LPS, 24 h after LPS"}, "MCP–1": {"system": "MCP–1", "test": "kidney MCP–1 mRNA (qPCR) in LPS induced sepsis in mice", "assay_type": "in vivo, C57BL/6N mice", "conditions": "compound i. p. 100 mg/kg bw 2 h before LPS, 24 h after LPS, vs. LPS group", "procedure": "(§1) Samples were stored at -80°C till further analysis. […] Plasma was generated by centrifugation at 4000 g at 4°C and stored at -80°C till further analysis.\n(§2) Tissue sections were stored in RNA-later immediately after organ retrieval. Total RNA was extracted using the RNeasy mini kit system (Qiagen, Hilden, Germany) and transcribed using Superscript II Reverse transcriptase (Invitrogen). Quantitative (q) PCR was performed on […] (Roche Diagnostics, Penzberg, Germany) using FastStart Sybr-Green chemistry. Gene-specific primers for IL–6 (Quantitec QT00098875, Qiagen) and MCP–1 (Quantitec QT00167832, Qiagen) were used for the gene of interest and HPRT served as house keeping gene for normalization (Quantitec QT00166768, Qigaen). Quantification was carried out using qgene software."}, "IL–6": {"system": "IL–6", "test": "kidney IL–6 mRNA (qPCR) in LPS induced sepsis in mice", "assay_type": "in vivo, C57BL/6N mice", "conditions": "compound i. p. 100 mg/kg bw 2 h before LPS, 24 h after LPS", "procedure": "as §1, §2"}, "[3]": {"system": "arachidonic acid (AA) cascade", "test": "kidney tissue oxylipin/PG levels in LPS induced sepsis in mice"}, "[4]": {"conditions": "compound i. p. 100 mg/kg bw 2 h before LPS (10 mg/kg bw i. p.)"}, "[5]": {"conditions": "kidney tissue 24 h after LPS treatment, LPS +, mean"}, "[6]": {"conditions": "kidney tissue 24 h after LPS treatment, LPS +, mean, < = below LOQ"}, "[7]": {"conditions": "mice, compound i. p. 100 mg/kg bw 2 h before LPS, 24 h after LPS, vs. LPS group"}}, "note": "“Also recorded” adds a separate entry of the source. Marks after values point to notes of the source that are not given here.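 For 1a,1b-dihomo-PGF2α in this document: male C57BL/6N mice challenged with LPS, kidney taken 24 h later, oxylipins quantified by LC-MS after solid-phase extraction of tissue homogenate.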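 For 4,5-DiHDPE in this document: male C57BL/6N mice challenged with LPS, kidney taken 24 h later, oxylipins quantified by LC-MS after solid-phase extraction of tissue homogenate.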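 For 4-HDHA in this document: male C57BL/6N mice challenged with LPS, kidney taken 24 h later, oxylipins quantified by LC-MS after solid-phase extraction of tissue homogenate.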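 For 5(6)-EpETrE in this document: male C57BL/6N mice challenged with LPS, kidney taken 24 h later, oxylipins quantified by LC-MS after solid-phase extraction of tissue homogenate.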"}
{"smiles": "Cc1ccc(-c2cc(C(F)(F)F)nn2-c2ccc(S(N)(=O)=O)cc2)cc1", "note": "[celecoxib, reference compound]", "values": [{"measurement": "plasma 6-keto-PGF1α level", "setting": "[1]; [4]", "value": "below the limit of quantification; also recorded: decreased"}, {"measurement": "plasma 13,14-dihydro-15-keto-PGE1 level", "setting": "[1]; [4]", "value": "below the limit of quantification; also recorded: decreased"}, {"measurement": "plasma 13,14-dihydro-15-keto-PGF2α level", "setting": "[1]; [4]", "value": "massively decreased"}, {"measurement": "plasma PG levels (LPS induced PG increase)", "setting": "[1]; [4]", "value": "effectively attenuated; also recorded: reduced"}, {"measurement": "plasma PGE2 level", "setting": "[1]; [4]", "value": "massively decreased"}, {"measurement": "plasma PGF2α level", "setting": "[1]; [4]", "value": "below the limit of quantification"}, {"measurement": "plasma epoxy- and dihydroxy-fatty acid (FA) metabolites of the CYP pathway", "setting": "[1]; compound i. p. 100 mg/kg bw 2 h before LPS", "value": "decreased"}, {"measurement": "plasma ALT activity", "setting": "[2]", "value": "elevated; also recorded: moderate elevation"}, {"measurement": "plasma AST activity", "setting": "[2]", "value": "elevated; also recorded: moderate elevation"}, {"measurement": "plasma LDH activity", "setting": "[2]", "value": "moderate elevation"}, {"measurement": "plasma creatinine level", "setting": "[2]", "value": "elevation"}, {"measurement": "plasma urea level", "setting": "[2]", "value": "elevation"}, {"measurement": "kidney MCP–1 mRNA levels", "setting": "MCP–1", "value": "did not affect"}, {"measurement": "further increase of kidney IL–6 mRNA expression in comparison to LPS group", "setting": "IL–6", "value": 9, "unit": "fold"}, {"measurement": "1a,1b-dihomo-PGF2α", "setting": "[3]; [5]", "value": "0.54^* nM"}, {"measurement": "4,5-DiHDPE", "setting": "[3]; [5]", "value": "22^‡ nM"}, {"measurement": "4-HDHA", "setting": "[3]; [5]", "value": 21, "unit": "nM"}, {"measurement": "5(6)-EpETrE", "setting": "[3]; [5]", "value": "130^† nM"}, {"measurement": "5,6-DiHETrE", "setting": "[3]; [5]", "value": "2.1^‡ nM"}, {"measurement": "5-HEPE", "setting": "[3]; [5]", "value": "1.5^‡ nM"}, {"measurement": "5-HETE", "setting": "[3]; [5]", "value": "16^‡ nM"}, {"measurement": "5-oxo-ETE", "setting": "[3]; [5]", "value": 31, "unit": "nM"}, {"measurement": "6-keto-PGF1α", "setting": "[3]; [5]", "value": 36, "unit": "nM"}, {"measurement": "7,8-DiHDPE", "setting": "[3]; [5]", "value": 1.9, "unit": "nM"}, {"measurement": "7-HDHA", "setting": "[3]; [5]", "value": "4.8^‡ nM"}, {"measurement": "8(9)-EpETrE", "setting": "[3]; [5]", "value": "30^† nM"}, {"measurement": "8,9-DiHETrE", "setting": "[3]; [5]", "value": 1.7, "unit": "nM"}, {"measurement": "8-HDHA", "setting": "[3]; [5]", "value": "24^‡ nM"}, {"measurement": "8-HETE", "setting": "[3]; [5]", "value": 4.6, "unit": "nM"}, {"measurement": "8-iPF2a", "setting": "[3]; [5]", "value": 1.2, "unit": "nM"}, {"measurement": "9(10)-EpOME", "setting": "[3]; [5]", "value": "160^* nM"}, {"measurement": "9(10)-Epoxystearic acid", "setting": "[3]; [5]", "value": "81^† nM"}, {"measurement": "9,10,13-TriHOME", "setting": "[3]; [5]", "value": 4.1, "unit": "nM"}, {"measurement": "9,10-DiHODE", "setting": "[3]; [5]", "value": 1.3, "unit": "nM"}, {"measurement": "9,10-DiHOME", "setting": "[3]; [5]", "value": "17^* nM"}, {"measurement": "9,10-Dihydroxystearic acid", "setting": "[3]; [5]", "value": 58, "unit": "nM"}, {"measurement": "9,12,13-TriHOME", "setting": "[3]; [5]", "value": 24, "unit": "nM"}, {"measurement": "9-HETE", "setting": "[3]; [5]", "value": "4.0^* nM"}, {"measurement": "9-HODE", "setting": "[3]; [5]", "value": 160, "unit": "nM"}, {"measurement": "9-HOTrE", "setting": "[3]; [5]", "value": 4.3, "unit": "nM"}, {"measurement": "9-oxo-ODE", "setting": "[3]; [5]", "value": 51, "unit": "nM"}, {"measurement": "10(11)-EpDPE", "setting": "[3]; [5]", "value": "70^‡ nM"}, {"measurement": "10,11-DiHDPE", "setting": "[3]; [5]", "value": 2.0, "unit": "nM"}, {"measurement": "10-HDHA", "setting": "[3]; [5]", "value": 4.3, "unit": "nM"}, {"measurement": "11(12)-EpETE", "setting": "[3]; [5]", "value": "3.5^* nM"}, {"measurement": "11(12)-EpETrE", "setting": "[3]; [5]", "value": "77^† nM"}, {"measurement": "11,12-DiHETrE", "setting": "[3]; [5]", "value": "1.7^* nM"}, {"measurement": "11-HDHA", "setting": "[3]; [5]", "value": "6.6^* nM"}, {"measurement": "11-HETE", "setting": "[3]; [5]", "value": 10, "unit": "nM"}, {"measurement": "12(13)-EpOME", "setting": "[3]; [5]", "value": "120^† nM"}, {"measurement": "12,13-DiHOME", "setting": "[3]; [5]", "value": "28^† nM"}, {"measurement": "12-HEPE", "setting": "[3]; [5]", "value": 2.9, "unit": "nM"}, {"measurement": "12-HETE", "setting": "[3]; [5]", "value": 29, "unit": "nM"}, {"measurement": "13(14)-EpDPE", "setting": "[3]; [5]", "value": "55^† nM"}, {"measurement": "13,14-DiHDPE", "setting": "[3]; [5]", "value": "1.5^‡ nM"}, {"measurement": "13,14-dihydro-15-keto-PGF2α", "setting": "[3]; [5]", "value": "0.72^† nM"}, {"measurement": "13-HDHA", "setting": "[3]; [5]", "value": 6.0, "unit": "nM"}, {"measurement": "13-HODE", "setting": "[3]; [5]", "value": 140, "unit": "nM"}, {"measurement": "13-HOTrE", "setting": "[3]; [5]", "value": 5.2, "unit": "nM"}, {"measurement": "13-oxo-ODE", "setting": "[3]; [5]", "value": 9.2, "unit": "nM"}, {"measurement": "14(15)-EpETE", "setting": "[3]; [5]", "value": "4.2^* nM"}, {"measurement": "14(15)-EpETrE", "setting": "[3]; [5]", "value": "57^† nM"}, {"measurement": "14,15-DiHETE", "setting": "[3]; [5]", "value": "0.34^‡ nM"}, {"measurement": "14,15-DiHETrE", "setting": "[3]; [5]", "value": "3.3^‡ nM"}, {"measurement": "14-HDHA", "setting": "[3]; [5]", "value": 17, "unit": "nM"}, {"measurement": "15(16)-EpODE", "setting": "[3]; [5]", "value": 55, "unit": "nM"}, {"measurement": "15(S)-HETrE", "setting": "[3]; [5]", "value": 4.0, "unit": "nM"}, {"measurement": "15,16-DiHODE", "setting": "[3]; [5]", "value": 21, "unit": "nM"}, {"measurement": "15-HETE", "setting": "[3]; [5]", "value": 19, "unit": "nM"}, {"measurement": "15-oxo-ETE", "setting": "[3]; [5]", "value": 8.4, "unit": "nM"}, {"measurement": "16(17)-EpDPE", "setting": "[3]; [5]", "value": "52^‡ nM"}, {"measurement": "16,17-DiHDPE", "setting": "[3]; [5]", "value": "2.8^‡ nM"}, {"measurement": "16-HDHA", "setting": "[3]; [5]", "value": 6.1, "unit": "nM"}, {"measurement": "17,18-DiHETE", "setting": "[3]; [5]", "value": "2.1^‡ nM"}, {"measurement": "18-HEPE", "setting": "[3]; [5]", "value": 1.3, "unit": "nM"}, {"measurement": "19(20)-EpDPE", "setting": "[3]; [5]", "value": "78^* nM"}, {"measurement": "19,20-DiHDPE", "setting": "[3]; [5]", "value": "29^‡ nM"}, {"measurement": "20-HDHA", "setting": "[3]; [5]", "value": 18, "unit": "nM"}, {"measurement": "20-HEPE", "setting": "[3]; [5]", "value": 5.3, "unit": "nM"}, {"measurement": "EKODE", "setting": "[3]; [5]", "value": 41, "unit": "nM"}, {"measurement": "PGD2", "setting": "[3]; [5]", "value": 7.4, "unit": "nM"}, {"measurement": "PGE1", "setting": "[3]; [5]", "value": 2.5, "unit": "nM"}, {"measurement": "PGE2", "setting": "[3]; [5]", "value": 45, "unit": "nM"}, {"measurement": "PGF1α", "setting": "[3]; [5]", "value": "1.4^† nM"}, {"measurement": "PGF2α", "setting": "[3]; [5]", "value": 15, "unit": "nM"}, {"measurement": "TXB2", "setting": "[3]; [5]", "value": 1.3, "unit": "nM"}, {"measurement": "5-iPF2α", "setting": "[3]; [6]", "value": "< 1.0", "unit": "nM"}, {"measurement": "8(9)-EpETE", "setting": "[3]; [6]", "value": "2.4^* nM"}, {"measurement": "12,13-DiHODE", "setting": "[3]; [6]", "value": "< 2.0", "unit": "nM"}, {"measurement": "13,14-dihydro-15-keto-PGE1", "setting": "[3]; [6]", "value": "< 0.1", "unit": "nM"}, {"measurement": "20-HETE", "setting": "[3]; [6]", "value": "< 2.7", "unit": "nM"}, {"measurement": "PGD1", "setting": "[3]; [6]", "value": "< 0.50", "unit": "nM"}, {"measurement": "PGF2α", "setting": "[3]; kidney tissue 24 h after LPS treatment, LPS +, mean, second listing of PGF2α (r9)", "value": 15, "unit": "nM"}, {"measurement": "kidney 13,14-dihydro-15-keto-PGE1 level", "setting": "[3]; [7]", "value": "<LOQ"}, {"measurement": "kidney 13,14-dihydro-15-keto-PGE2α level", "setting": "[3]; [7]", "value": "lowered"}]}
